In ChEMBL document CHEMBL5120979, “Oral Nonpeptidic, Noncovalent Triazine Coronavirus Main Protease Inhibitors for Treating COVID-19” (ACS Med Chem Lett, 2022):
pEC50, pIC50: −log10 of the molar value.

Target: Replicase polyprotein 1ab (Severe acute respiratory syndrome coronavirus 2, UniProt P0DTD1)
Assay: Inhibition of recombinant SARS-CoV-2 main protease usingDABCYLKTSAVLQSGFRKME(EDANS)-NH2 fluorogenic peptide substrate by FRET assay
Conditions: not given

Structure (SMILES)	pIC50
Cn1cnc(Cn2c(=O)nc(Nc3cc4cn(C)nc4cc3Cl)n(Cc3cc(F)c(F)c(F)c3)c2=O)c1	8.22
Cn1cnc(Cn2c(=O)nc(NC3=CC4CCOC4C=C3Cl)n(Cc3cc(F)c(F)c(F)c3)c2=O)n1 (stereo not given)	7.82
Cn1cnc(Cn2c(=O)nc(Nc3cc4cn(C)nc4cc3Cl)n(Cc3cc(F)c(F)c(F)c3F)c2=O)n1	8.00
Cc1cncc(-n2c(=O)nc(Nc3cc4cn(C)nc4cc3Cl)n(Cc3cc(C#N)c(F)cc3C)c2=O)c1	8.70
Cn1cc2cc(Nc3nc(=O)n(Cc4cc5ccsc5[nH]c4=O)c(=O)n3Cc3cc(F)c(F)c(F)c3)c(Cl)cc2n1	8.40
Cn1cnc(Cn2c(=O)nc(Nc3cc4cn(CC(F)F)nc4cc3Cl)n(Cc3cc(F)c(F)cc3F)c2=O)n1	8.05
Cn1cnc(Cn2c(=O)nc(Nc3cc4cn(C)nc4cc3Cl)n(Cc3cc(Cl)c(F)c(Cl)c3)c2=O)n1	8.30

Tested on: SARS-CoV-2
Assay: Antiviral activity against SARS-CoV-2 infected in African green monkey VeroE6 cells expressing TMPRSS2
Type: functional, organism-based
Conditions: Severe acute respiratory syndrome coronavirus 2, Vero C1008

Structure (SMILES)	pEC50
Cn1cnc(Cn2c(=O)nc(Nc3cc4cn(C)nc4cc3Cl)n(Cc3cc(F)c(F)c(F)c3)c2=O)c1	5.99
Cn1cnc(Cn2c(=O)nc(NC3=CC4CCOC4C=C3Cl)n(Cc3cc(F)c(F)c(F)c3)c2=O)n1 (stereo not given)	6.41
Cc1cncc(-n2c(=O)nc(Nc3cc4cn(C)nc4cc3Cl)n(Cc3cc(F)c(F)c(F)c3)c2=O)c1	6.75
Cn1cc2cc(Nc3nc(=O)n(-c4cncc(C(F)(F)F)c4)c(=O)n3Cc3cc(F)c(F)c(F)c3)c(Cl)cc2n1	5.18
Cn1cc2cc(Nc3nc(=O)n(Cc4cc(Cl)ccn4)c(=O)n3Cc3cc(F)c(F)cc3F)c(Cl)cc2n1	5.82
Cn1cnc(Cn2c(=O)nc(Nc3cc4cn(C)nc4cc3Cl)n(Cc3cc(F)c(F)c(F)c3F)c2=O)n1	6.40
CCn1cc2cc(Nc3nc(=O)n(Cc4ncn(C)n4)c(=O)n3Cc3cc(F)c(F)cc3F)c(Cl)cc2n1	6.27
Cc1cncc(-n2c(=O)nc(Nc3cc4cn(C)nc4cc3Cl)n(Cc3cc(C#N)c(F)cc3C)c2=O)c1	7.46
Cc1cncc(-n2c(=O)nc(Nc3cc4cn(C)nc4cc3Cl)n(Cc3cc(F)c(F)cc3F)c2=O)c1	6.88
Cn1cc2cc(Nc3nc(=O)n(Cc4cc5ccsc5[nH]c4=O)c(=O)n3Cc3cc(F)c(F)c(F)c3)c(Cl)cc2n1	6.49
Cn1cc2cc(Nc3nc(=O)n(-c4cncc5c4COC5)c(=O)n3Cc3cc(Cl)c(F)cc3F)c(Cl)cc2n1	6.17
Cn1cnc(Cn2c(=O)nc(Nc3cc4cn(CC(F)F)nc4cc3Cl)n(Cc3cc(F)c(F)cc3F)c2=O)n1	6.47
CCNC(=O)Cn1c(=O)nc(Nc2cc3cn(C)nc3cc2Cl)n(Cc2cc(F)c(F)c(F)c2)c1=O	4.94
Cn1cnc(Cn2c(=O)nc(Nc3cc4cn(C)nc4cc3Cl)n(Cc3cccc4ccccc34)c2=O)n1	4.65
Cn1cnc(Cn2c(=O)nc(Nc3cc4cn(C)nc4cc3Cl)n(Cc3cc(Cl)c(F)c(Cl)c3)c2=O)n1	6.12
Cn1cnc(Cn2c(=O)nc(Nc3cc4cn(C)nc4cc3Cl)n(Cc3cc(F)c(F)c(F)c3)c2=O)n1	6.35
Cc1cnc(Cn2c(=O)nc(Nc3cc4cn(C)nc4cc3Cl)n(Cc3cc(F)c(F)cc3F)c2=O)nc1	5.23
Cn1cnc(Cn2c(=O)nc(Nc3cc4c(F)n(C)nc4cc3Cl)n(Cc3cc(F)c(F)cc3F)c2=O)n1	6.12
